Where only a bound is given, the exact number is not on record here.

Test system in one experiment: not listed separately
In words: Inhibition of recombinant PFK1 (unknown origin) extracted from baculovirus-infected Sf9 cells incubated for 45 min by ADP-Glo kinase assay. More on the design: species or system Homo sapiens.
On to `O=C(O)C1C2C=CC(C2)C1C(=O)N1CCc2c([nH]c3ccccc23)C1C(F)(F)F` (stereo unspecified), for which the IC50 was 2.7 µM.

As for `O=C(O)[C@@H]1C2C=CC(C2)[C@@H]1C(=O)N1CCc2c([nH]c3ccccc23)[C@@H]1C(F)(F)F` (stereo partly specified), the IC50 turned out to be 4.7 µM.

As to `O=C(O)[C@H]1C2C=CC(C2)[C@H]1C(=O)N1CCc2c([nH]c3ccccc23)[C@H]1C(F)(F)F` (stereo partly specified), the IC50 worked out at 2.1 µM.

On to `O=C(O)[C@@H]1C2C=CC(C2)[C@@H]1C(=O)N1CCc2c([nH]c3ccccc23)[C@H]1C(F)(F)F` (stereo partly specified), for which the IC50 is over 100 µM.

On to `O=C(O)[C@H]1C2C=CC(C2)[C@H]1C(=O)N1CCc2c([nH]c3ccccc23)[C@@H]1C(F)(F)F` (stereo partly specified), for which the IC50 was 25 µM.

In the next experiment the test system is HeLa. Description: Effect on mitochondrial respiration in human HeLa cells assessed as increase in OCR/ECAR ratio incubated for 24 hrs by XFe96 extracellular flux analyzer assay. Type of experiment: functional, cell-based.
For `O=C(O)[C@H]1C2C=CC(C2)[C@H]1C(=O)N1CCc2c([nH]c3ccccc23)[C@H]1C(F)(F)F` (stereo partly specified), the Activity result was “Active; Significantly Increased”.
